Experimental data from US4454158A, “Allyl amine MAO inhibitors” (Merrell Toraude et Compagnie, priority 1981, dated 1984).
Read-outs that look alike come from different tables or passages of the source.

Assays:
MAO [1] = test: Inhibition of MAO - In vitro (14C p-tyramine substrate, partially purified rat brain mitochondria); format: biochemical; conditions: tested as hydrochloride salt, read-out: IC50 (MAO inhibitory activity - In vitro)
Description: (A) The ability of a compound of Formula I or II to inhibit MAO can be determined in vitro by the method of A. Christmas et al, Br. J. Pharmacol. 45, 490 (1972) in partially purified mitochondria from rat brain using ^14 C p-tyramine as the substrate.

MAO [2] = test: Inhibition of MAO - Ex vivo, rat (14C p-tyramine substrate); format: in vivo; conditions: for % Inhibition of MAO - Brain: 18 hr
Protocol: (§1) The ability of a compound of Formula I or II to inhibit MAO can be determined ex vivo by the following procedure:
The test compound is administered intraperitoneally (ip), intravenously (iv), or orally (po) to rats or mice and the animals are killed at various times after treatment. […] MAO activity is determined in the homogenates using ^14 C p-tyramine, as the substrate. […] Selectivity can be determined by repeating the above-described test using either ^14 C 5-hydroxytryptamine (for MAO-A) or ^14 C phenethylamine (for MAO-B) as the substrate for determining the % inhibition

[3] = test system: heart rate response to p-tyramine; conditions: rat, in vivo, iv
Protocol: (§2) The following test procedure can be employed to assess the potential of a compound of Formula I or II for producing the "cheese effect":
(§3) Rats are administered an intravenous injection of the test compound at various dosage levels, and 30 minutes later the rats are challenged with several intravenous or intraduodenal dodes of p-tyramine. The heart rate response is measured.

depression = conditions: literature; cited from earlier work
[4] = test system: heart rate response to p-tyramine; test: Cheese effect: potentiation of heart-rate response to p-tyramine in rats; conditions: rat
Protocol: as §2, §3

MAO-B versus MAO-A [5] = test: Selectivity of MAO inhibitors - In vitro (14C 5-hydroxytryptamine for MAO-A, 14C phenethylamine for MAO-B); format: biochemical, rat; conditions: in vitro, rat brain mitochondria
Protocol: Mitochondria are prepared from rat brain by homogenation in phosphate buffer (0.1 M, pH 7.2) followed by differential centrifugation. The mitochondria are suspended in the same buffer, the test compound is added at the desired concentration, and the system is incubated. […] Christmas, et al, supra).
Selectivity is expressed as the ratio of the inhibitory activity against MAO-B versus the inhibitory activity against MAO-A.

MAO [6] = test: Inhibition of MAO - Ex vivo, mouse (14C p-tyramine substrate); format: in vivo; conditions: 24 hr
Protocol: as §1
The test compound is administered intraperitoneally (ip), intravenously (iv), or orally (po) to rats or mice and the animals are killed at various times after treatment. The brain, heart, liver, or duodenum is removed and either a crude homogenate or a mitochondrial fraction, described in Example 28, Part A, is prepared. MAO activity is determined in the homogenates using ^14 C p-tyramine, as the substrate. Table III gives the results of the testing of certain compounds according to the above-described procedure. Selectivity can be determined by repeating the above-described test using either ^14 C 5-hydroxytryptamine (for MAO-A) or ^14 C phenethylamine (for MAO-B) as the substrate for determining the % inhibition

MAO [7] = test: Inhibition of MAO - In vivo: change in levels of endogenous MAO substrates and metabolites in mouse brain; parameters: species or system mice; conditions: 2 hr
Protocol: The ability of a compound of Formula I or II to inhibit MAO can be determined in vivo in mice according to the following procedure, wherein changes in concentration of the endogenous MAO substrates and the metabolites thereof are assayed.
Mice are given an intraperitoneal injection of the test compound and 2 hours or 16 hours later the animals are killed. The levels of dopamine, dihydroxyphenylacetic acid (DOPAC), 5-hydroxytryptamine (5-HT), and 5-hydroxyindole-3-acetic acid (5-HIAA) in brain homogenates are determined by the method of J. Wagner et al, J. Chromatog. 164, 41 (1979) and P. Bey et al, Br. J. Pharmac., 70, 571 (1980).

MAO [8] = test: Time-dependence and reversibility of MAO inhibition (rat brain mitochondria, 14C p-tyramine); format: biochemical; conditions: phosphate buffer pH 7.2, 14C p-tyramine
Protocol: (B) The compounds of Formula I or II can be tested to determine whether or not the MAO inhibition follows time-dependent kinetics by the procedure described below:
Mitochondria are prepared from rat brain by homogenation in phosphate buffer (0.1 M, pH 7.2) followed by differential centrifugation. The mitochondria are suspended in the same buffer, the test compound is added at the desired concentration, and the system is incubated. At different time intervals, aliquots are taken and MAO activity is measured using ^14 C p-tyramine (a mixed substrate) as the substrate (See A. Christmas, et al, supra). When the compounds shown in Table I were tested according to the above-described procedure, the MAO inhibitory activity increased as a function of time of incubation. The initial rate of decrease of activity increased with increasing concentration of inhibitor.

cheese effect = conditions: low dosages; literature; cited from earlier work
Parkinson's disease = conditions: literature; cited from earlier work
MAO-B versus MAO-A [9] = conditions: literature figure; cited from earlier work
MAO-A and MAO-B = conditions: literature, cited from earlier work

C#CCN(C)CCCOc1ccc(Cl)cc1Cl [clorgyline, reference compound]
IC50 (MAO [1]): 100 nM | % Inhibition of MAO - Duodenum (MAO [2]; 0.1 mg/kg iv, 2 hr): 87% | % Inhibition of MAO - Heart (MAO [2]; 0.1 mg/kg iv, 2 hr): 84% | % Inhibition of MAO - Brain (MAO [2]; 1.0 mg/kg po): 20% | % Inhibition of MAO - Brain (MAO [2]; 5.0 mg/kg po): 64% | Potentiation of heart-rate response to p-tyramine [3]: 5.2 fold | clinical effectiveness as antidepressant (in words) (depression): clinically effective antidepressant agents | Potentiation of heart-rate response to p-tyramine ([4]; dose 0.1 (iv), p-tyramine i.d.): 5.6 fold

NC/C(=C/F)c1ccccc1 [(E)-2-phenyl-3-fluoroallylamine, (E)-2-Phenyl-3-fluoroallylamine]
IC50 (MAO [1]): 700 nM | Selectivity (ratio of inhibitory activity against MAO-B versus MAO-A) (MAO-B versus MAO-A [5]): 10 | % Inhibition of MAO - Duodenum (MAO [2]; 0.1 mg/kg iv, 24 hr): 67% | % Inhibition of MAO - Heart (MAO [2]; 0.1 mg/kg iv, 24 hr): 85% | % Inhibition of MAO - Liver (MAO [2]; 0.1 mg/kg iv, 24 hr): 48% | % Inhibition of MAO - Brain (MAO [6]; 0.5 mg/kg ip): 45% | % Inhibition of MAO - Heart (MAO [6]; 0.5 mg/kg ip): 91% | % Inhibition of MAO - Brain (MAO [6]; 1.0 mg/kg ip): 68% | % Inhibition of MAO - Heart (MAO [6]; 1.0 mg/kg ip): 97% | % Change (compared to control) - 5-HIAA (MAO [7]; 1 mg/kg ip): -35% | % Change (compared to control) - 5-HT (MAO [7]; 1 mg/kg ip): +41% | % Change (compared to control) - DOPAC (MAO [7]; 1 mg/kg ip): -67% | % Change (compared to control) - Dopamine (MAO [7]; 1 mg/kg ip): +15% | % Change (compared to control) - 5-HIAA (MAO [7]; 10 mg/kg ip): -90% | % Change (compared to control) - 5-HT (MAO [7]; 10 mg/kg ip): +90% | % Change (compared to control) - DOPAC (MAO [7]; 10 mg/kg ip): -92% | % Change (compared to control) - Dopamine (MAO [7]; 10 mg/kg ip): +32% | % Change (compared to control) - 5-HIAA (MAO [7]; 100 mg/kg ip): -91% | % Change (compared to control) - 5-HT (MAO [7]; 100 mg/kg ip): +96% | % Change (compared to control) - DOPAC (MAO [7]; 100 mg/kg ip): -95% | % Change (compared to control) - Dopamine (MAO [7]; 100 mg/kg ip): +19% | Potentiation of heart-rate response to p-tyramine ([4]; dose 0.1 (iv), p-tyramine i.d.): 9.1 fold | Potentiation of heart-rate response to p-tyramine ([4]; dose 0.1 (iv), p-tyramine i.v.): 8.4 fold

NC/C(=C\Cl)c1ccccc1 [(Z)-2-phenyl-3-chloroallylamine, (Z)-2-Phenyl-3-chloroallylamine]
IC50 (MAO [1]): 500000 nM | time-dependent inhibitory kinetics (MAO [8]): did not show time-dependent inhibitory kinetics

C#CCN(C)[C@H](C)Cc1ccccc1 [L-deprenyl, reference compound]
% Inhibition of MAO - Duodenum (MAO [2]; 1.0 mg/kg po, 2 hr): 62% | % Inhibition of MAO - Heart (MAO [2]; 1.0 mg/kg po, 2 hr): 48% | % Change (compared to control) - 5-HIAA (MAO [7]; 10 mg/kg ip): +9% | % Change (compared to control) - 5-HT (MAO [7]; 10 mg/kg ip): +18% | % Change (compared to control) - DOPAC (MAO [7]; 10 mg/kg ip): -21% | % Change (compared to control) - Dopamine (MAO [7]; 10 mg/kg ip): +10% | clinical effectiveness as antidepressant (in words) (depression): clinically effective antidepressant agents | cheese effect (in words) (cheese effect): is not observed at the low dosages where preferential inhibition of MAO-B occurs | potentiation of L-DOPA in Parkinson's disease (in words) (Parkinson's disease): potentiate L-DOPA for the treatment of Parkinson's disease without producing peripheral side effects | Potentiation of heart-rate response to p-tyramine ([4]; dose 0.1 (iv), p-tyramine i.d.): no effect | Potentiation of heart-rate response to p-tyramine ([4]; dose 0.1 (iv), p-tyramine i.v.): 1.3 fold | Potentiation of heart-rate response to p-tyramine ([4]; dose 1.0 (iv), p-tyramine i.d.): 2.1 fold | Potentiation of heart-rate response to p-tyramine ([4]; dose 1.0 (iv), p-tyramine i.v.): 2.2 fold

C#CCN(C)Cc1ccccc1 [pargyline]
IC50 (MAO [1]): 2000 nM | Selectivity (ratio of inhibitory activity against MAO-B versus MAO-A) (MAO-B versus MAO-A [9]): 10 | preferential inhibition of MAO-A or MAO-B (in words) (MAO-A and MAO-B): MAO-B is preferentially inhibited | dose-dependence of MAO selectivity (in words) (MAO-A and MAO-B; lower vs higher dosages): selective inhibitors at lower dosages, but are not selective inhibitors at higher dosages | clinical effectiveness as antidepressant (in words) (depression): clinically effective antidepressant agents
